Results taken from publication PMC11945486, “TAS1R2/TAS1R3 Single-Nucleotide Polymorphisms Affect Sweet Taste Receptor Activation by Sweeteners: The SWEET Project” (Nutrients, 2025).
Like-named read-outs stand apart in the source and are kept apart here.

How the values were obtained:
[1] = target: T1, human TAS1R2-WT/TAS1R3-WT (Homo sapiens, UniProt Q7RTX0+Q8TE23); assay: Calcium mobilisation assay, HEK293T-Gα16gust44 cells, human sweet taste receptor WT; format: cell-based; conditions: for Max ΔF/F0: maximal signal amplitude; for EC50: read-out: EC50
T1 construct: expressed in transfected cells; host or cells: HEK293T-Gα16gust44
T1 sequence (Q8TE23 20-839): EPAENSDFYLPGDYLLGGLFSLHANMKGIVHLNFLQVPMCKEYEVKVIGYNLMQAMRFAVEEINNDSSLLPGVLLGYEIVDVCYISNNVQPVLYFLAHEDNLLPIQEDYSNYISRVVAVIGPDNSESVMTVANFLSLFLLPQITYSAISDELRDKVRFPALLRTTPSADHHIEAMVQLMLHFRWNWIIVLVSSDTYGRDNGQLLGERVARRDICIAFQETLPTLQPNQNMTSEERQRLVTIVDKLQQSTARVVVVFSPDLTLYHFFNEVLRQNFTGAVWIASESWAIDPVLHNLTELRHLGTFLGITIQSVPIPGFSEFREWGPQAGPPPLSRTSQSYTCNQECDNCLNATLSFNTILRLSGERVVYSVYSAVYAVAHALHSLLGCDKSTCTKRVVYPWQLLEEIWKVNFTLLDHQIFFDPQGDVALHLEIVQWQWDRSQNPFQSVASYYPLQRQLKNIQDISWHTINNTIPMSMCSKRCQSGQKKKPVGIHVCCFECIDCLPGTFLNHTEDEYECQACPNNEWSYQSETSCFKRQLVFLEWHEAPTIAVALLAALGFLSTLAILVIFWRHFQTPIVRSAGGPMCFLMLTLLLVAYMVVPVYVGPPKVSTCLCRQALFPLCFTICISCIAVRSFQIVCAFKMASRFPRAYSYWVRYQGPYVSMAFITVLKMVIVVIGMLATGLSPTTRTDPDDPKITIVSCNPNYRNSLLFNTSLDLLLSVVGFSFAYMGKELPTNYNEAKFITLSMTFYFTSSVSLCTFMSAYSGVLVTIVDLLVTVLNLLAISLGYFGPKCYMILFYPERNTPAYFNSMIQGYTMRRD
T1 sequence (Q7RTX0 21-852): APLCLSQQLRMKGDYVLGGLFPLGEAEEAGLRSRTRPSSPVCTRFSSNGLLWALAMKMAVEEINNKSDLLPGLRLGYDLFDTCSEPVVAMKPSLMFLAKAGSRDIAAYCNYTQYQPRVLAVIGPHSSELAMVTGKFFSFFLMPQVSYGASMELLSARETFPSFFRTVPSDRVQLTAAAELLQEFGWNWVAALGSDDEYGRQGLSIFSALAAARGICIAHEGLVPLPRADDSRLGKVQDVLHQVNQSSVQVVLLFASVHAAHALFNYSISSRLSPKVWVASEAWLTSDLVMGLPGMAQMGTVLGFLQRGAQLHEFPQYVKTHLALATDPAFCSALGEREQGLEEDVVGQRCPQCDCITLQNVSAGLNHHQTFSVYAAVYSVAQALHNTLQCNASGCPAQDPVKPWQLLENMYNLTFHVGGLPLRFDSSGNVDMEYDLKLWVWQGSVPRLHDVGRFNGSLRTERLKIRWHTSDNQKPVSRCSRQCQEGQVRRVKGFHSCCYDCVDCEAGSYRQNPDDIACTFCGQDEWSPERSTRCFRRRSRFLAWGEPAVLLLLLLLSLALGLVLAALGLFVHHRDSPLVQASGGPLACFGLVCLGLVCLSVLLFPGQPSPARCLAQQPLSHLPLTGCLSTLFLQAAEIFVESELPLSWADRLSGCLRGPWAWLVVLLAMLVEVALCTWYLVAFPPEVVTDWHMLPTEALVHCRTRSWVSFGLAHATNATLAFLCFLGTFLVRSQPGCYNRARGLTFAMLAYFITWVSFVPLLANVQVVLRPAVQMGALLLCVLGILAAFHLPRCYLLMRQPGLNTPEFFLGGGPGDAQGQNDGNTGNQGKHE
Description: (§1) The coding sequences for TAS1R2 and TAS1R3 were commercially synthesised, and the human codon was optimised for expression in human cells. The coding sequences of human TAS1R2 and TAS1R3 were subcloned and inserted into the mammalian expression vectors pcDNA6/myc-HisA and pcDNA4/myc-HisA (Invitrogen; Thermo Fisher Scientific; Illkirch, France) between the EcoRI and NotI restriction sites, generating the plasmids pcDNA6-TAS1R2 and pcDNA4-TAS1R3, respectively. To increase protein expression in mammalian cells, an upstream start codon was used, which was a sequence called MAX, corresponding to the QBI SP163 element also described in pcDNA4-HisMax (Invitrogen; Thermo Fisher Scientific; Illkirch, France). To measure the expression level of the receptor by immunohistochemistry, we used the FLAG sequence ([…]) in the C-terminal position, which encodes the FLAG tag epitope. SNP variants of TAS1R2 and TAS1R3 were constructed based on […], respectively, using site-directed mutagenesis (Genewiz; Leipzig, Germany).
(§2) The HEK293T cells were kindly provided by Jay P. Slack (Givaudan Flavors Corporation; Cincinnati, OH, USA). HEK293T cells stably transfected with Gα16gust44 [43, 67] were seeded in poly-D-lysine-coated clear-bottom black 96-well plates (0.35 × 10^5 cells/well) in high-glucose DMEM supplemented with 2 mM GlutaMAX, 10% dialysed foetal bovine serum with penicillin/streptomycin and G418 (400 μg/mL) at 37 °C and 6.3% CO2 in a humidified atmosphere as previously reported. […] As a negative control, HEK293T cells were mock-transfected with the empty expression vector. After a further 24 h of incubation, the HEK293T cells were washed with C1 buffer (130 mM NaCl, 5 mM KCl, 10 mM HEPES pH 7.4 and 2 mM CaCl2). The 96-well plates containing the cells were then stimulated with sweet-tasting compounds. […] Different concentration ranges were tested depending on the sweet compound injected. The Ca^2+ changes were expressed as fractional changes in fluorescent light intensity: ΔF/F = (F − F0)/F0, where F was the fluorescent light intensity at each point, and F0 was the value of emitted fluorescent light prior to stimulus application. To calculate dose–response relationships, the changes in fluorescence upon stimulus application were averaged, mock-subtracted and baseline-corrected. The dose–response data obtained were adjusted using a 4-parameter logistic equation. The half-maximal effective concentrations (EC50 values) and maximal signal amplitudes were calculated using SigmaPlot software (version 15.0) (Systat Software; San Jose, CA, USA).
(§3) For in vitro calcium mobilisation assay performed on hTAS1R2-SNPs, hTAS1R3-SNPs and mTAS1R3-I60T, 6 to 7 concentrations were tested for each sweet compound, plus buffer alone. All concentration–receptor combinations were measured in duplicate, and each experiment was repeated at least 4 times (8 wells/concentration). Results were expressed for each concentration as ΔF/F mean ± SEM and represented as dose–response curves.

[2] = target: T2, human TAS1R2-C9S/TAS1R3-WT (Homo sapiens, UniProt Q7RTX0+Q8TE23); assay: Calcium mobilisation assay, TAS1R2 variant C9S with TAS1R3-WT; format: cell-based; conditions: for Max ΔF/F0: maximal signal amplitude
T2 construct: expressed in transfected cells; host or cells: HEK293T-Gα16gust44
T2 sequence (Q8TE23 20-839): T1 sequence (Q8TE23 20-839)
T2 sequence (Q7RTX0 21-852): T1 sequence (Q7RTX0 21-852)
Description: as §1, §2, §3

Structure (SMILES)	R1 = Variant EC50/WT EC50 ([1]; TAS1R2-WT + TAS1R3-WT)	Max ΔF/F0 ([1]; TAS1R2-WT + TAS1R3-WT)	EC50 ([1]; TAS1R2-WT + TAS1R3-WT) [µM]	R1 = Variant EC50/WT EC50 ([1]; TAS1R2-WT/TAS1R3-WT)	Max ΔF/F0 ([1]; TAS1R2-WT/TAS1R3-WT)	EC50 ([1]; TAS1R2-WT/TAS1R3-WT) [µM]	EC50 [2] [µM]	R1 = Variant EC50/WT EC50 [2]	Max ΔF/F0 [2]
CC1=CC(=O)NS(=O)(=O)O1 [Acesulfame K, acesulfame K]	1.0	0.31 ± 0.01	705 ± 7	1.0	0.28 ± 0.01	622 ± 45	466 ± 54	0.7	0.32 ± 0.01
O=S(=O)(O)NC1CCCCC1 [Cyclamate, cyclamate]	–	–	1890 ± 46	–	–	1590 ± 28	1810 ± 55	–	–
C[C@H](CC[C@@H](O[C@@H]1O[C@H](CO[C@@H]2O[C@H](CO)[C@@H](O)[C@H](O)[C@H]2O)[C@@H](O)[C@H](O)[C@H]1O[C@@H]1O[C@H](CO)[C@@H](O)[C@H](O)[C@H]1O)C(C)(C)O)[C@H]1CC[C@@]2(C)[C@@H]3CC=C4[C@@H](CC[C@H](O[C@@H]5O[C@H](CO[C@@H]6O[C@H](CO)[C@@H](O)[C@H](O)[C@H]6O)[C@@H](O)[C@H](O)[C@H]5O)C4(C)C)[C@]3(C)[C@H](O)C[C@]12C [Mogroside V, mogroside V]	1.0	1.28 ± 0.03	17.3 ± 1.2	1.0	0.93 ± 0.01	31.3 ± 0.8	18.6 ± 1.6	1.1	1.32 ± 0.04
COc1ccc(CCC(=O)c2c(O)cc(O[C@@H]3O[C@H](CO)[C@@H](O)[C@H](O)[C@H]3O[C@@H]3O[C@@H](C)[C@H](O)[C@@H](O)[C@H]3O)cc2O)cc1O [NHDC, neohesperidin dihydrochalcone]	1.0	0.71 ± 0.02	76.7 ± 4.4	1.0	1.13 ± 0.01	50.3 ± 11	99 ± 5.2	1.3	0.83 ± 0.02
COC(=O)[C@H](Cc1ccccc1)NC(=O)[C@H](CC(=O)O)NCCC(C)(C)C [Neotame]	1.0	0.56 ± 0.03	0.84 ± 0.13	1.0	0.65 ± 0.02	1.22 ± 0.11	0.85 ± 0.16	1.0	0.66 ± 0.04
C=C(C)[C@@H]1CC=C(/C=N/O)CC1 [Perillartine, perillartine]	1.0	1.47 ± 0.07	17.5 ± 2.2	1.0	1.51 ± 0.22	13.8 ± 6.3	17.8 ± 1.2	1.0	1.29 ± 0.03
C=C1C[C@@]23CC[C@H]4[C@@](C)(CCC[C@@]4(C)C(=O)O[C@@H]4O[C@H](CO)[C@@H](O)[C@H](O[C@@H]5O[C@H](CO)[C@@H](O)[C@H](O)[C@H]5O)[C@H]4O[C@@H]4O[C@H](CO)[C@@H](O)[C@H](O)[C@H]4O)[C@@H]2CC[C@]1(O[C@@H]1O[C@H](CO)[C@@H](O)[C@H](O[C@@H]2O[C@H](CO)[C@@H](O)[C@H](O)[C@H]2O)[C@H]1O[C@@H]1O[C@H](CO)[C@@H](O)[C@H](O)[C@H]1O)C3 [Rebaudioside M, rebaudioside M]	1.0	1.12 ± 0.01	16.9 ± 0.5	1.0	0.69 ± 0.02	40.4 ± 2.9	23.7 ± 1.6	1.4	1.18 ± 0.03
OC[C@H]1O[C@H](O[C@]2(CCl)O[C@H](CCl)[C@@H](O)[C@@H]2O)[C@H](O)[C@@H](O)[C@H]1Cl [Sucralose]	1.0	0.59 ± 0.03	90 ± 11	1.0	0.65 ± 0.01	109 ± 4	88 ± 15	1.0	0.72 ± 0.05
